Among the data in PubChem BioAssay (NCI) are TGI values, retold here.

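Following 48 hours of exposure in 96-well plates, responses at five concentrations were used to interpolate endpoints linearly. TGI marks complete inhibition of growth.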 *1 amine or outer side, *2 acyl side, *3 side chain or, on linkers, in order; H or OH if unused. Where a SMILES comes first, the peptide text is derived from it. [ ]: non-standard residue; d: D form. The star is where a group is joined. ξ: configuration not given here. NMeY = CN[C@@H](Cc1ccc(O)cc1)C(=O)O; Ethylenediamine = C(CN[*:2])N[*:1]; ξNMeL = CNC(CC(C)C)C(=O)O; Cbz = O=C(OCc1ccccc1)*; Lac = C[C@H](O)C(=O)O; ξA = CC(N)C(=O)O

Among the test systems are HT29 colon; A498 renal; UO-31 renal; UACC-257 melanoma; K-562 leukemia; OVCAR-4 ovarian; EKVX NSCLC; SR leukemia; IGROV1 ovarian; SK-MEL-28 melanoma; SF-295 CNS; KM12 colon; A549 NSCLC; NCI-H460 lung; SK-MEL-5 melanoma; COLO 205 colon; LOX IMVI melanoma; HS 578T breast; M14 melanoma.
What all share (assay): DTP human tumour cell line panel, 48 h

Consider `COc1ccc(C[C@@H](C(=O)NCCNC(=O)C(CC(C)C)N(C)C(=O)[C@@H]2CCCN2C(=O)[C@H](C)O)N(C)C(=O)[C@@H]2CCCN2C(=O)[C@H](CC(C)C)NC(=O)C(C)NC(=O)OCc2ccccc2)cc1` (stereo partly drawn) (Cbz-[ξA]LP[NMeY](Me)-{Ethylenediamine-ξNMeL-Pro-Lac}), for which the TGI in the experiment with HT29 colon, in the experiment with A498 renal, in the experiment on UO-31 renal, in the experiment with UACC-257 melanoma, in the experiment with K-562 leukemia and in the experiment with OVCAR-4 ovarian was greater than 100 µM in each case. The TGI in the experiment with EKVX NSCLC, in the experiment with SR leukemia, with IGROV1 ovarian, in the experiment with SK-MEL-28 melanoma, in the experiment on SF-295 CNS and in the experiment on KM12 colon was greater than 100 µM throughout. Further, the TGI in the experiment with A549 NSCLC, in the experiment with NCI-H460 lung, in the experiment with SK-MEL-5 melanoma, with COLO 205 colon, in the experiment on LOX IMVI melanoma and in the experiment with HS 578T breast was greater than 100 µM each time. In addition, in the experiment with M14 melanoma, the TGI is greater than 100 µM.

For the compound `O=C(CC(O)(C(F)(F)F)C(F)(F)Cl)CC(O)(C(F)(F)F)C(F)(F)Cl` (stereo not drawn), the concentration for total growth inhibition (TGI) in the experiment with HT29 colon was greater than 10 µM; with A498 renal, 9.22 µM; in the experiment with UO-31 renal it was greater than 10 µM; in the experiment with UACC-257 melanoma, 4.59 µM; with K-562 leukemia, greater than 10 µM; in the experiment on OVCAR-4 ovarian it was greater than 10 µM. The TGI in the experiment with EKVX NSCLC was greater than 10 µM; with SR leukemia, greater than 10 µM; in the experiment with IGROV1 ovarian, greater than 10 µM; with SK-MEL-28 melanoma, greater than 10 µM; in the experiment on SF-295 CNS, 7.91 µM; with KM12 colon, greater than 10 µM. The TGI with A549 NSCLC was greater than 10 µM; in the experiment with NCI-H460 lung, 8.85 µM; in the experiment with SK-MEL-5 melanoma, 4.35 µM; in the experiment on COLO 205 colon it was 3.07 µM; in the experiment with LOX IMVI melanoma it was 7.34 µM; in the experiment with HS 578T breast, 6.69 µM. The TGI in the experiment with M14 melanoma is greater than 10 µM.

As to `O=C1c2c(ccc3c2CCC3)CC1Cc1ccc2c(c1)CCC2` (stereo not drawn), the TGI with HT29 colon is 60.9 µM; with A498 renal, greater than 100 µM; in the experiment with UO-31 renal, greater than 100 µM; in the experiment with UACC-257 melanoma, 61.9 µM; in the experiment on K-562 leukemia it was 80.1 µM; with OVCAR-4 ovarian, 85.4 µM. Besides, the TGI is greater than 100 µM in the experiment on EKVX NSCLC; 30.9 µM in the experiment with SR leukemia; greater than 100 µM in the experiment with IGROV1 ovarian; greater than 100 µM in the experiment with SK-MEL-28 melanoma; 94.3 µM with SF-295 CNS; greater than 100 µM with KM12 colon. The TGI in the experiment with A549 NSCLC is greater than 100 µM; in the experiment on NCI-H460 lung, greater than 100 µM; with SK-MEL-5 melanoma it was 27.9 µM; in the experiment on COLO 205 colon, 51.4 µM; in the experiment on LOX IMVI melanoma it was greater than 100 µM; in the experiment with HS 578T breast it was 61.6 µM. In the experiment with M14 melanoma, this compound had a TGI greater than 100 µM.

As to `COC(=O)CN(CC(O)C(NC(C)=O)C(O)C=O)C(=O)OCc1ccccc1` (stereo not drawn), the TGI in the experiment with HT29 colon, in the experiment with A498 renal, in the experiment with UO-31 renal, in the experiment on UACC-257 melanoma, in the experiment with K-562 leukemia and in the experiment on OVCAR-4 ovarian was greater than 100 µM each time. In addition, the concentration for total growth inhibition (TGI) in the experiment with EKVX NSCLC, in the experiment with SR leukemia, in the experiment with IGROV1 ovarian, in the experiment on SK-MEL-28 melanoma, with SF-295 CNS and with KM12 colon was greater than 100 µM throughout. The TGI in the experiment with A549 NSCLC, with NCI-H460 lung, in the experiment on SK-MEL-5 melanoma, in the experiment on COLO 205 colon, with LOX IMVI melanoma and in the experiment with HS 578T breast was greater than 100 µM in each case. For the same compound, in the experiment with M14 melanoma, the TGI was greater than 100 µM.

`CC(=O)OC1OC(c2ccoc2)C[C@@]12C1CCC3O[C@]3(C)[C@]1(C)[C@H](OC(C)=O)[C@H](OC(C)=O)[C@H]2C` (stereo partly drawn): the TGI with HT29 colon, in the experiment on A498 renal, in the experiment with UO-31 renal, in the experiment on UACC-257 melanoma, in the experiment on K-562 leukemia and in the experiment with OVCAR-4 ovarian was greater than 37.5 µM in each case. The TGI in the experiment with EKVX NSCLC, in the experiment with SR leukemia, in the experiment on IGROV1 ovarian, in the experiment on SK-MEL-28 melanoma, in the experiment on SF-295 CNS and with KM12 colon was greater than 37.5 µM throughout. Further, the TGI in the experiment on A549 NSCLC, in the experiment with NCI-H460 lung, in the experiment with SK-MEL-5 melanoma, in the experiment on COLO 205 colon, in the experiment on LOX IMVI melanoma and in the experiment with HS 578T breast was greater than 37.5 µM throughout. Further, in the experiment on M14 melanoma, the TGI was greater than 37.5 µM.

Regarding `Cc1c[nH]c(C(=O)O)c1-c1cccn1-c1ccc(Cl)cc1[N+](=O)[O-]`, the TGI with HT29 colon, in the experiment on A498 renal, in the experiment with UO-31 renal, with UACC-257 melanoma, with K-562 leukemia and in the experiment with OVCAR-4 ovarian was greater than 100 µM throughout. In addition, the TGI with EKVX NSCLC, in the experiment on SR leukemia, with IGROV1 ovarian, in the experiment with SK-MEL-28 melanoma, in the experiment on SF-295 CNS and in the experiment with KM12 colon was greater than 100 µM in each case. Besides, the TGI with A549 NSCLC, with NCI-H460 lung, with SK-MEL-5 melanoma, in the experiment with COLO 205 colon, in the experiment on LOX IMVI melanoma and in the experiment with HS 578T breast was greater than 100 µM in each case. The TGI with M14 melanoma was greater than 100 µM.

`O=C(O)CCO/N=C1/C(c2c(O)[nH]c3ccccc23)=Nc2ccccc21`: the TGI in the experiment with HT29 colon was 79.4 µM; in the experiment on A498 renal, 74.2 µM; in the experiment on UO-31 renal, 38.3 µM; with UACC-257 melanoma, greater than 100 µM; in the experiment on K-562 leukemia, greater than 100 µM; in the experiment on OVCAR-4 ovarian, greater than 100 µM. The TGI was 47.9 µM with EKVX NSCLC; 57.9 µM in the experiment on SR leukemia; greater than 100 µM in the experiment on IGROV1 ovarian; greater than 100 µM in the experiment on SK-MEL-28 melanoma; greater than 100 µM with SF-295 CNS; 38.9 µM with KM12 colon. In addition, the TGI in the experiment on A549 NSCLC was greater than 100 µM; with NCI-H460 lung, greater than 100 µM; in the experiment on SK-MEL-5 melanoma it was 27.3 µM; in the experiment on COLO 205 colon it was 35.1 µM; in the experiment with LOX IMVI melanoma it was 44.8 µM; in the experiment on HS 578T breast, greater than 100 µM. In the experiment with M14 melanoma, this compound yielded a TGI greater than 100 µM.
